Reference: BindingDB's records for doi:10.1021/bi900236k (University of Thessaly, 2009)

Target: T1, Poly(A)-specific ribonuclease PARN (Homo sapiens, UniProt O95453)
T1 sequence (O95453 whole entry): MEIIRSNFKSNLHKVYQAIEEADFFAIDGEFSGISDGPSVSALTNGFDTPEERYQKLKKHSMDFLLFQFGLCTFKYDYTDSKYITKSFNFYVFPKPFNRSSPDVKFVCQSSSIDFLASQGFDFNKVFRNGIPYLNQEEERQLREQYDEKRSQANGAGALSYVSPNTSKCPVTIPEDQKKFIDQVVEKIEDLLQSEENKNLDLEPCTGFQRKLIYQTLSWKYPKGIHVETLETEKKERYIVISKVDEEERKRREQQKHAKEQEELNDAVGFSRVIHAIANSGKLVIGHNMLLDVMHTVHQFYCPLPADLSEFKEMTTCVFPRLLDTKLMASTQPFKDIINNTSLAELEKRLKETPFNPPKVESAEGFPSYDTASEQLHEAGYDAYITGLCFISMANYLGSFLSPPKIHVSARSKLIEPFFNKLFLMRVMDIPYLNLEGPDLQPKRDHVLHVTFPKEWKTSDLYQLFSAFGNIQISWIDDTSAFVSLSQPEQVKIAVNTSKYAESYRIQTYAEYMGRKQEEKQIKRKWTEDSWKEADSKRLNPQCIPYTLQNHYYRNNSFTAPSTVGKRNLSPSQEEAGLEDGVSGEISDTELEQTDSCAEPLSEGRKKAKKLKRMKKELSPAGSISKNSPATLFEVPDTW
Assay: PARN Activity Assay
Protocol: The enzymatic activity was determined by the methylene blue assay.

Row | Ki | Structure (SMILES)
1 | 510 µM | O=C(Nc1ncnc2c1ncn2C1OC(O)C(O)C(F)C1O)c1ccccc1 (stereo not drawn) [Nucleoside, A2]
2 | 210 µM | O=C(Nc1ccn(C2OC(CO)C(O)C(F)C2O)c(=O)n1)c1ccccc1 (stereo not drawn) [Nucleoside, A6]
3 | 645 µM | Nc1ccn(C2OC(CO)C(O)C(F)C2O)c(=O)n1 (stereo not drawn) [Nucleoside, C6]
